Patent US11091522B2, “Peptidomimetic macrocycles and uses thereof” (priority 2018, dated 2021)
Read-outs that look alike come from different tables or passages of the source. One block for each molecule: values may come before it. Bridge positions count the residues as written; N and C are the ends. Square brackets hold non-standard residues; d marks the D form. Peptide text beside a SMILES is read from it. R8 = C=CCCCCCC[C@@](C)(N)C(=O)O; S5 = C=CCCC[C@](C)(N)C(=O)O; Nle = CCCC[C@H](N)C(=O)O; Aib = CC(C)(N)C(=O)O

Assays:
[1] = Circular dichroism (CD) analysis of alpha-helicity; assay type: physicochemical; conditions: difference 50% TFE minus benign
Procedure: Peptide solutions were analyzed by CD spectroscopy using a spectropolarimeter. A temperature controller was used to maintain temperature control of the optical cell. Results are expressed as mean molar ellipticity [θ] (deg cm^2 dmol^−1) as calculated from the equation [θ]=θobs·MRW/10*l*c where θobs is the observed ellipticity in millidegrees, MRW is the mean residue weight of the peptide (peptide molecular weight/number of residues), 1 is the optical path length of the cell in centimeters, and c is the peptide concentration in mg/ml. Peptide concentrations were determined by amino acid analysis. Stock solutions of peptides were prepared in benign CD buffer (20 mM phosphoric acid, pH 2). The stock solutions were used to prepare peptide solutions of 0.05 mg/ml in either benign CD buffer or CD buffer with 50% trifluoroethanol (TFE) for analyses in a 10 mm path length cell. Variable wavelength measurements of peptide solutions were scanned at 4° C. from 195 to 250 nm, in 0.2 nm increments, and a scan rate 50 nm per minute. The average of six scans is reported.

MDMX = target: T1, MDMX (Homo sapiens, UniProt O15151); assay: Competitive fluorescence polarization assay for MDMX; assay type: binding
T1 sequence (O15151 1-125): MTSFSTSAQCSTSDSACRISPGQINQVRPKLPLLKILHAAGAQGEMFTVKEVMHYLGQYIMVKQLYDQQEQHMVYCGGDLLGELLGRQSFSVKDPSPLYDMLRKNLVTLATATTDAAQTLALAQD
Procedure: MDMX (40 kD) was diluted into FP buffer (high-salt buffer 200 mM NaCl, 5 mM CHAPS, pH 7.5) to make a 300 nM (2×) working stock solution. 20 μl of the 300 nM (2×) of protein stock solution was added into each well of 96-well black microplate. 1 mM (in 100% DMSO) of a FAM-labeled linear peptide was diluted with DMSO to a concentration of 100 μM (dilution 1:10). The solution was diluted from 100 M to 10 M with water (dilution 1:10), and diluted further with FP buffer from 10 μM to 40 nM (dilution 1:250). […] The diluted FAM-labeled peptide was kept in the dark until use. An unlabeled peptide dose plate was prepared with FP buffer starting with a concentration of 5 μM (final) of a peptide. […] 10 mM (in 100% DMSO) of the solution was diluted with DMSO to prepare a 5 mM (dilution 1:2) solution. The solution was diluted from 5 mM to 500 μM with H2O (dilution 1:10), and diluted further with FP buffer from 500 μM to 20 μM (dilution 1:25). […] 10 μl of the serially diluted unlabeled peptides were added to each well, which was filled with 20 μl of the 300 nM protein solution. 10 μl of the 10 nM (4×) FAM-labeled peptide solution was added into each well, and the wells were incubated for 3 h before reading.

MDM2 = MDM2 (Homo sapiens, UniProt Q00987); assay: Competitive fluorescence polarization assay for MDM2; assay type: binding
MDM2, sequence (Q00987 1-125): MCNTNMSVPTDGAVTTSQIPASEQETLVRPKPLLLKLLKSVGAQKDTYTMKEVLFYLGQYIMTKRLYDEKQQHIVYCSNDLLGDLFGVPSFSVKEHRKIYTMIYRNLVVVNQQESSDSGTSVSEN
Procedure: 1 mM of FAM-labeled linear peptide (in 100% DMSO) was diluted to 100 μM with DMSO (dilution 1:10). Then, diluted solution was further diluted from 100 μM to 10 μM with water (dilution 1:10), and diluted again with FP buffer from 10 μM to 40 nM (dilution 1:250). […] The diluted FAM-labeled peptides were kept in the dark until use.
Unlabeled peptide dose plates were prepared with FP buffer starting with 1 μM (final) of the peptide. […] 10 mM of the solution (in 100% DMSO) with DMSO to 5 mM (dilution 1:2); dilution from 5 mM to 500 μM with H2O (dilution 1:10); and dilution with FP buffer from 500 μM to 20 μM (dilution 1:25). […] 10 μl of 10 nM (4×) of FAM-labeled peptide was added into each well, and the wells were incubated for 3 h before being read.

[2] = competitive fluorescence polarization, MDMX, read-out: Ki (MDMX)
[3] = competitive fluorescence polarization, MDM2, read-out: Ki (MDM2)

- Molar Ellipticity TFE-Molar Ellipticity Benign [1]: −20045.4 deg cm^2 dmol^−1
Compound: CC(=O)N[C@@H](CC(C)C)C(=O)N[C@H](C(=O)N[C@@H](Cc1ccccc1)C(=O)N[C@]1(C)CCCCCCC=CCCC[C@@](C)(C(=O)N[C@@H](CO)C(=O)N[C@@H](C)C(=O)N[C@@H](Cc2ccccc2)C(N)=O)NC(=O)[C@H](CC(C)C)NC(=O)[C@H](CCC(N)=O)NC(=O)[C@H](C)NC(=O)[C@H](Cc2c[nH]c3ccccc23)NC(=O)[C@H](Cc2ccc(O)cc2)NC(=O)[C@H](C)NC1=O)[C@@H](C)O [compound 7] (Ac-LTF[R8]AYWAQL[S5]SAF-NH2; staple 4-11)

- Molar Ellipticity TFE-Molar Ellipticity Benign [1]: 16225.2 deg cm^2 dmol^−1
Compound: CC(=O)N[C@@H](CC(C)C)C(=O)N[C@H](C(=O)N[C@@H](Cc1ccccc1)C(=O)N[C@]1(C)CCCCCCC=CCCC[C@@](C)(C(=O)N[C@@H](CO)C(=O)N[C@@H](C)C(=O)N[C@@H](C)C(N)=O)NC(=O)[C@H](CC(C)C)NC(=O)[C@H](CCC(N)=O)NC(=O)[C@H](C)NC(=O)[C@H](Cc2c[nH]c3ccccc23)NC(=O)[C@H](Cc2ccc(O)cc2)NC(=O)[C@H](C)NC1=O)[C@@H](C)O [compound 11] (Ac-LTF[R8]AYWAQL[S5]SAA-NH2; staple 4-11)

- Molar Ellipticity TFE-Molar Ellipticity Benign [1]: 20410.4 deg cm^2 dmol^−1
Compound: CCCC[C@H](NC(=O)[C@H](CCC(N)=O)NC(=O)[C@H](CCC(N)=O)NC(=O)[C@]1(C)CCCC=CCCCCCC[C@@](C)(NC(=O)[C@H](Cc2ccccc2)NC(C)=O)C(=O)N[C@@H](C)C(=O)N[C@@H](Cc2ccc(O)cc2)C(=O)N[C@@H](Cc2c[nH]c3ccccc23)C(=O)N[C@@H]([C@@H](C)O)C(=O)N[C@@H](C)C(=O)N[C@@H](CC(C)C)C(=O)N1)C(=O)N[C@@H](C(N)=O)C(C)C [compound 41] (Ac-F[R8]AYWTAL[S5]QQ[Nle][dV]-NH2; staple 2-9)

- Molar Ellipticity TFE-Molar Ellipticity Benign [1]: −17835.9 deg cm^2 dmol^−1
Compound: CC[C@H](C)[C@H](NC(=O)[C@H](C)NC(=O)[C@H](C)NC(=O)[C@]1(C)CCC/C=C/CCCCCC[C@@](C)(NC(=O)[C@H](Cc2ccccc2)NC(=O)[C@@H](NC(=O)[C@H](CC(C)C)NC(C)=O)[C@@H](C)O)C(=O)N[C@@H](C)C(=O)N[C@@H](Cc2ccc(O)cc2)C(=O)N[C@@H](Cc2c[nH]c3ccccc23)C(=O)N[C@@H](C)C(=O)N[C@@H](CCC(N)=O)C(=O)N[C@@H](CC(C)C)C(=O)N1)C(=O)N[C@H](C)C(N)=O [compound 71]

- Ki (MDMX; [2]): 10 to 100 nM
- Ki (MDM2; [3]): < 10 nM
Compound: CC(=O)N[C@@H](CC(C)C)C(=O)N[C@H](C(=O)N[C@@H](Cc1ccccc1)C(=O)N[C@]1(C)CCCCCC/C=C/CCC[C@@](C)(C(=O)N[C@@H](C)C(=O)N[C@@H](C)C(=O)N[C@@H](C)C(=O)N[C@@H](C)C(=O)N[C@@H](C)C(=O)NC(C)(C)C(N)=O)NC(=O)[C@H](CC(C)C)NC(=O)[C@H](CCC(N)=O)NC(=O)[C@H](C)NC(=O)[C@H](Cc2c[nH]c3ccccc23)NC(=O)[C@H](Cc2ccc(O)cc2)NC(=O)[C@H](CCC(=O)O)NC1=O)[C@@H](C)O [compound 567]

- Ki (MDMX; [2]): 10 to 100 nM
- Ki (MDM2; [3]): < 10 nM
Compound: CC(=O)N[C@@H](CC(C)C)C(=O)N[C@H](C(=O)N[C@@H](Cc1ccccc1)C(=O)N[C@]1(C)CCCCCC/C=C/CCC[C@@](C)(C(=O)N[C@@H](C)C(=O)N[C@@H](C)C(=O)N[C@@H](C)C(=O)N[C@@H](C)C(=O)N[C@@H](C)C(=O)N(C)CC(N)=O)NC(=O)[C@H](CC(C)C)NC(=O)[C@H](CCC(N)=O)NC(=O)[C@H](C)NC(=O)[C@H](Cc2c[nH]c3ccccc23)NC(=O)[C@H](Cc2ccc(O)cc2)NC(=O)[C@H](CCC(=O)O)NC1=O)[C@@H](C)O [compound 578]

The remaining lines, values behind:

Compound: CC(=O)N[C@@H](CC(C)C)C(=O)N[C@H](C(=O)N[C@@H](Cc1ccccc1)C(=O)N[C@]1(C)CCCCCCC=CCCC[C@@](C)(C(=O)N[C@@H](C)C(=O)N[C@@H](C)C(=O)N[C@@H](C)C(=O)N[C@H](C)C(N)=O)NC(=O)[C@H](CC(C)C)NC(=O)[C@H](CCC(N)=O)NC(=O)[C@H](C)NC(=O)[C@H](Cc2c[nH]c3ccccc23)NC(=O)[C@H](Cc2ccc(O)cc2)NC(=O)[C@H](C)NC1=O)[C@@H](C)O (single isomer, unassigned) [compound 230]
- Molar Ellipticity TFE-Molar Ellipticity Benign [1]: −17760.8 deg cm^2 dmol^−1

Compound: CC(=O)N[C@@H](CC(C)C)C(=O)N[C@H](C(=O)N[C@@H](Cc1ccccc1)C(=O)N[C@]1(C)CCCCCCC=CCCC[C@@](C)(C(=O)N[C@@H](Cc2c[nH]cn2)C(=O)N[C@@H](Cc2c[nH]cn2)C(=O)N[C@@H](CC(C)C)C(=O)N[C@H](C)C(N)=O)NC(=O)[C@H](CC(C)C)NC(=O)[C@H](CCC(N)=O)NC(=O)[C@H](C)NC(=O)[C@H](Cc2c[nH]c3ccccc23)NC(=O)[C@H](Cc2ccc(O)cc2)NC(=O)[C@H](C)NC1=O)[C@@H](C)O [compound 43] (Ac-LTF[R8]AYWAQL[S5]HHL[dA]-NH2; staple 4-11)
- Molar Ellipticity TFE-Molar Ellipticity Benign [1]: 2912.9 deg cm^2 dmol^−1

Compound: CCCC[C@H](NC(=O)[C@H](C)NC(=O)[C@H](C)NC(=O)[C@]1(C)CCC/C=C/CCCCCC[C@@](C)(NC(=O)[C@H](Cc2ccccc2)NC(=O)[C@@H](NC(=O)[C@H](CC(C)C)NC(C)=O)[C@@H](C)O)C(=O)N[C@@H](C)C(=O)N[C@@H](Cc2ccc(O)cc2)C(=O)N[C@@H](Cc2c[nH]c3ccccc23)C(=O)N[C@@H](C)C(=O)N[C@@H](CCC(N)=O)C(=O)N[C@@H](CC(C)C)C(=O)N1)C(=O)N[C@@H](C)C(N)=O [compound 69]
- Molar Ellipticity TFE-Molar Ellipticity Benign [1]: −21407.1 deg cm^2 dmol^−1

Compound: CC(=O)N[C@@H](CC(C)C)C(=O)N[C@H](C(=O)N[C@@H](Cc1ccccc1)C(=O)N[C@]1(C)CCCCCCC=CCCC[C@@](C)(C(=O)N[C@@H](C)C(=O)N[C@@H](C)C(=O)N[C@@H](C)C(=O)N[C@@H](C)C(=O)N[C@H](C)C(N)=O)NC(=O)[C@H](CC(C)C)NC(=O)[C@H](CCC(N)=O)NC(=O)[C@H](C)NC(=O)[C@H](Cc2c[nH]c3ccccc23)NC(=O)[C@H](Cc2ccc(O)cc2)NC(=O)[C@H](C)NC1=O)[C@@H](C)O [compound 233]
- Molar Ellipticity TFE-Molar Ellipticity Benign [1]: −18554.7 deg cm^2 dmol^−1

Compound: CC(C)C[C@H](NC(=O)CN(C)C)C(=O)N[C@H](C(=O)N[C@@H](Cc1ccccc1)C(=O)N[C@]1(C)CCCCCC/C=C/CCC[C@@](C)(C(=O)N[C@@H](C)C(=O)N[C@@H](C)C(=O)N[C@@H](C)C(=O)N[C@@H](C)C(=O)N[C@@H](C)C(=O)N[C@H](C)C(N)=O)NC(=O)[C@H](CC(C)C)NC(=O)[C@H](CCC(N)=O)NC(=O)[C@H](C)NC(=O)[C@H](Cc2c[nH]c3ccccc23)NC(=O)[C@H](Cc2ccc(O)cc2)NC(=O)[C@H](C)NC1=O)[C@@H](C)O [compound 437]
- IC50 (MDMX): 10 to 100 nM
- Ki (MDMX): 10 to 100 nM
- IC50 (MDM2): 10 to 100 nM
- Ki (MDM2): < 10 nM

Compound: CC(=O)N[C@@H](CC(C)C)C(=O)N[C@H](C(=O)N[C@@H](Cc1ccccc1)C(=O)N[C@]1(C)CCCCCC/C=C/CCC[C@@](C)(C(=O)N[C@@H](C)C(=O)N[C@@H](C)C(=O)N[C@@H](C)C(=O)N[C@@H](C)C(=O)N[C@@H](C)C(=O)N[C@H](C)C(N)=O)NC(=O)[C@H](CC(C)C)NC(=O)[C@H](CCC(N)=O)NC(=O)[C@H](C)NC(=O)[C@H](Cc2c[nH]c3cc(Cl)ccc23)NC(=O)[C@H](Cc2ccc(O)cc2)NC(=O)[C@H](CCC(=O)O)NC1=O)[C@@H](C)O [compound 555]
- Ki (MDMX): 10 to 100 nM
- Ki (MDM2): < 10 nM

Compound: CC(=O)N[C@@H](CC(C)C)C(=O)N[C@H](C(=O)N[C@@H](Cc1ccc(F)c(F)c1)C(=O)N[C@]1(C)CCCCCC/C=C/CCC[C@@](C)(C(=O)N[C@@H](C)C(=O)N[C@@H](C)C(=O)N[C@@H](C)C(=O)N[C@@H](C)C(=O)N[C@@H](C)C(=O)N[C@H](C)C(N)=O)NC(=O)[C@H](CC(C)C)NC(=O)[C@H](CCC(N)=O)NC(=O)[C@H](C)NC(=O)[C@H](Cc2c[nH]c3ccccc23)NC(=O)[C@H](Cc2ccc(O)cc2)NC(=O)[C@H](CCC(=O)O)NC1=O)[C@@H](C)O [compound 558]
- Ki (MDMX): 10 to 100 nM
- Ki (MDM2): 10 to 100 nM

Compound: CC(=O)N[C@@H](CC(C)C)C(=O)N[C@H](C(=O)N[C@@H](Cc1ccccc1)C(=O)N[C@]1(C)CCCCCC/C=C/CCC[C@@](C)(C(=O)N[C@@H](C)C(=O)N[C@@H](C)C(=O)N[C@@H](C)C(=O)NC(C)(C)C(=O)N[C@@H](C)C(=O)N[C@H](C)C(N)=O)NC(=O)[C@H](CC(C)C)NC(=O)[C@H](CCC(N)=O)NC(=O)[C@H](C)NC(=O)[C@H](Cc2c[nH]c3ccccc23)NC(=O)[C@H](Cc2ccc(O)cc2)NC(=O)[C@H](CCC(=O)O)NC1=O)[C@@H](C)O [compound 564] (Ac-LTF[R8]EYWAQL[S5]AAA[Aib]A[dA]-NH2; staple (E) 4-11)
- Ki (MDMX; [2]): 10 to 100 nM
- Ki (MDM2; [3]): < 10 nM
